According to PubChem BioAssay (NCI):
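Cultured in 96-well plates, cells were exposed to test compound for 48 hours across five concentrations. GI50: concentration for 50% inhibition of growth. Definition used: TGI = concentration required for complete inhibition of growth.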

Experiments:
Assay in all cases: DTP human tumour cell line panel, 48 h
786-0 renal = system: 786-0 renal
A498 renal = system: A498 renal
A549 NSCLC = system: A549 NSCLC
ACHN renal = system: ACHN renal
BT-549 breast = system: BT-549 breast
CAKI-1 renal = system: CAKI-1 renal
CCRF-CEM leukemia = system: CCRF-CEM leukemia
COLO 205 colon = system: COLO 205 colon
DU-145 prostate = system: DU-145 prostate
EKVX NSCLC = system: EKVX NSCLC
HCC-2998 colon = system: HCC-2998 colon
HCT-116 colon = system: HCT-116 colon
HCT-15 colon = system: HCT-15 colon
HL-60(TB) leukemia = system: HL-60(TB) leukemia
HOP-62 NSCLC = system: HOP-62 NSCLC
HOP-92 NSCLC = system: HOP-92 NSCLC
HS 578T breast = system: HS 578T breast
HT29 colon = system: HT29 colon
IGROV1 ovarian = system: IGROV1 ovarian
K-562 leukemia = system: K-562 leukemia
KM12 colon = system: KM12 colon
LOX IMVI melanoma = system: LOX IMVI melanoma
M14 melanoma = system: M14 melanoma
MALME-3M melanoma = system: MALME-3M melanoma
MCF7 breast = system: MCF7 breast
MDA-MB-231 breast = system: MDA-MB-231 breast
MDA-MB-435 = system: MDA-MB-435
MOLT-4 leukemia = system: MOLT-4 leukemia
NCI-H226 lung = system: NCI-H226 lung

## CSc1ccc(C2=NN(C(=O)c3ccc(F)cc3)C(c3ccc(F)cc3)C2)cc1 (stereo not drawn)
786-0 renal
  GI50: 15.5 µM
  TGI: 30.7 µM
A498 renal
  GI50: 19.6 µM
  TGI: 34.9 µM
A549 NSCLC
  GI50: 11.7 µM
  TGI: 26.9 µM
ACHN renal
  GI50: 12.7 µM
  TGI: 25.4 µM
BT-549 breast
  GI50: 15.1 µM
  TGI: 30 µM
CAKI-1 renal
  GI50: 16.6 µM
  TGI: 37.5 µM
CCRF-CEM leukemia
  GI50: 2.24 µM
  TGI: 6.52 µM
COLO 205 colon
  GI50: 12.3 µM
  TGI: 25.6 µM
DU-145 prostate
  GI50: 14.6 µM
  TGI: 29.3 µM
EKVX NSCLC
  GI50: 18.9 µM
  TGI: 37 µM
HCC-2998 colon
  GI50: 12.3 µM
  TGI: 25.6 µM
HCT-116 colon
  GI50: 3.61 µM
  TGI: 12.7 µM
HCT-15 colon
  GI50: 5.39 µM
  TGI: 20.5 µM
HL-60(TB) leukemia
  GI50: 12 µM
  TGI: 35.3 µM
HOP-62 NSCLC
  GI50: 18.4 µM
  TGI: 33.7 µM
HOP-92 NSCLC
  GI50: 9.72 µM
  TGI: 24.6 µM
HS 578T breast
  GI50: 34.2 µM
  TGI: 64.2 µM
HT29 colon
  GI50: 4.37 µM
  TGI: 15.8 µM
IGROV1 ovarian
  GI50: 4.91 µM
  TGI: 18.8 µM
K-562 leukemia
  GI50: 3.91 µM
  TGI: 16.6 µM
KM12 colon
  GI50: 2.2 µM
  TGI: 5.83 µM
LOX IMVI melanoma
  GI50: 3.62 µM
  TGI: 12.3 µM
M14 melanoma
  GI50: 9.43 µM
  TGI: 22.1 µM
MALME-3M melanoma
  GI50: 12.1 µM
  TGI: 26 µM
MCF7 breast
  GI50: 4.98 µM
  TGI: 17.9 µM
MDA-MB-231 breast
  GI50: 14 µM
  TGI: 32.3 µM
MDA-MB-435
  GI50: 10.6 µM
  TGI: 26.8 µM
MOLT-4 leukemia
  GI50: 12.3 µM
  TGI: 38.2 µM
NCI-H226 lung
  GI50: 13.4 µM
  TGI: 34.3 µM
